From publication PMC3249170 (Cellular and Molecular Life Sciences: CMLS, 2011)

Target: actomyosin-7a (acto•M7a) (Homo sapiens, UniProt Q13402)
Experiment: biochemical

Sequence of actomyosin-7a (acto•M7a) (Q13402 whole entry, looked up): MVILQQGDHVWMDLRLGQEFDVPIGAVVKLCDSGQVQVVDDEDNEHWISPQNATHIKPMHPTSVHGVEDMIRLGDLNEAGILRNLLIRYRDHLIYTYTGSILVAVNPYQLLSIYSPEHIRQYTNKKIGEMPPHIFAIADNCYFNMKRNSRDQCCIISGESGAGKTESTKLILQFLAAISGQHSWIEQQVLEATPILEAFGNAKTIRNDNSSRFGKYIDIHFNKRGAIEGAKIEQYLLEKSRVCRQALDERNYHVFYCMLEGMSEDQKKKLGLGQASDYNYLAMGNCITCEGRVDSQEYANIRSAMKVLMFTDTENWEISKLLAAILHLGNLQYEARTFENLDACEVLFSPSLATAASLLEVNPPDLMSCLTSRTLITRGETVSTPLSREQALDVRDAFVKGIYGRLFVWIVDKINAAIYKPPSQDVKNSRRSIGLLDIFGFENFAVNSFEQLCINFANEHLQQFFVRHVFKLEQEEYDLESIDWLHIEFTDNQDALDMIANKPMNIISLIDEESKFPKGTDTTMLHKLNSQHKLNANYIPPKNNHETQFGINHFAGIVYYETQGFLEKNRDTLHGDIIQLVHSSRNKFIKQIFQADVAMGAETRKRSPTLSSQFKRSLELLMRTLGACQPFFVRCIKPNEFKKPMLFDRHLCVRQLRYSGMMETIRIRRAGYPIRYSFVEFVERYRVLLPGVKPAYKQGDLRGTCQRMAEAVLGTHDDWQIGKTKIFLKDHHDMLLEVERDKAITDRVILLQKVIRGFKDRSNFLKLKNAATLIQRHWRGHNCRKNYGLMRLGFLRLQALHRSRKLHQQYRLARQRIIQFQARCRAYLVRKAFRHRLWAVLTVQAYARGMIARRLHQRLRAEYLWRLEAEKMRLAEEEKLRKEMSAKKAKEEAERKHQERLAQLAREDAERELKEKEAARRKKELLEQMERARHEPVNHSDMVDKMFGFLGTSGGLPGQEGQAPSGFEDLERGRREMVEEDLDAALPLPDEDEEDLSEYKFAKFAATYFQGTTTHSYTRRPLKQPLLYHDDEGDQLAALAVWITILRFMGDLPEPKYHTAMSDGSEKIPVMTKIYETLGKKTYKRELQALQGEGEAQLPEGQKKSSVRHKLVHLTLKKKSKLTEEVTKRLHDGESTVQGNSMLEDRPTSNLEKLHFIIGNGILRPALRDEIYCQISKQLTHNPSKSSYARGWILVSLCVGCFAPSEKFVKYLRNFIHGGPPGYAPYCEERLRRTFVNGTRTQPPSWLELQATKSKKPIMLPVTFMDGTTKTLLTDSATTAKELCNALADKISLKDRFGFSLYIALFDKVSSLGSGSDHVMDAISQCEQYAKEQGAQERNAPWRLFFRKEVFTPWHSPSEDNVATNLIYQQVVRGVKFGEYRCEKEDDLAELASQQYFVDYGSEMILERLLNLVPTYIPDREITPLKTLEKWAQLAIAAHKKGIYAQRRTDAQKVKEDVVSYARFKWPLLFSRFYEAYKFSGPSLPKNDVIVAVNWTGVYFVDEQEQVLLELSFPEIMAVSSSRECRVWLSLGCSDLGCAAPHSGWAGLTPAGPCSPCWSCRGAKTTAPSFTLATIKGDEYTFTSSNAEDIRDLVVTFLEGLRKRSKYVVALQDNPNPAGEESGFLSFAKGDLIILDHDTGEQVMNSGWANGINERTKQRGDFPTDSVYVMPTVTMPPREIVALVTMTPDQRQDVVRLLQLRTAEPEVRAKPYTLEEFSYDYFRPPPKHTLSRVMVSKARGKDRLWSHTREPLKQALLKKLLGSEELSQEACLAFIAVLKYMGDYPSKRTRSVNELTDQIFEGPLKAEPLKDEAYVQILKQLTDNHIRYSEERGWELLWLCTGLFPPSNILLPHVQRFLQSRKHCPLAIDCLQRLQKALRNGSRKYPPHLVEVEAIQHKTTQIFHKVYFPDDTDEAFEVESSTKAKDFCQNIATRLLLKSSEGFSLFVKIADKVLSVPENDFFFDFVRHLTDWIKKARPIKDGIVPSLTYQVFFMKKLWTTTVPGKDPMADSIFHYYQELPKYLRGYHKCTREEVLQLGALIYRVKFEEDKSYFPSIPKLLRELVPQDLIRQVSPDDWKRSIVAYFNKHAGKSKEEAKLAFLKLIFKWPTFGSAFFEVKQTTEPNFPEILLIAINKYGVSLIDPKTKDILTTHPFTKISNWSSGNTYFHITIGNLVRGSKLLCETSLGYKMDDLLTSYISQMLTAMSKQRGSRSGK

Kd: 681.2 ± 5.63 µM
Compound: Nc1ncnc2c1ncn2[C@@H]1O[C@H](COP(=O)(O)OP(=O)(O)OP(=O)(O)O)[C@@H](O)[C@H]1O [ATP]
